Results taken from ChEMBL document CHEMBL5360648, “Identification of 5-HT2 Serotonin Receptor Modulators through the Synthesis of a Diverse, Tropane- and Quinuclidine-alkaloid-Inspired Compound Library” (J Med Chem, 2023).
pEC50, pIC50: −log10 of the molar value.

Legend:
[1] = target: 5-hydroxytryptamine receptor 6 (Homo sapiens) (UniProt P50406); test: Inhibition of [3H]LSD from binding to 5-HT6 receptor (unknown origin) at 10 uM relative to control
[2] = target: 5-hydroxytryptamine receptor 7 (Homo sapiens) (UniProt P34969); test: Inhibition of [3H]LSD from binding to 5-HT7 receptor (unknown origin) at 10 uM relative to control
[3] = target: 5-hydroxytryptamine receptor 4 (Homo sapiens) (UniProt Q13639); test: Inhibition of [3H]GR113808 from binding to 5-HT4E receptor (unknown origin) at 10 uM relative to control
[4] = target: T1, 5-hydroxytryptamine receptor 2C (Homo sapiens, UniProt P28335); test: Antagonist activity at 5-HT2C receptor in HEK293 cells assessed as calcium mobilisation by Fluo-4 dye based assay; type: functional, cell-based
T1 sequence (P28335 whole entry): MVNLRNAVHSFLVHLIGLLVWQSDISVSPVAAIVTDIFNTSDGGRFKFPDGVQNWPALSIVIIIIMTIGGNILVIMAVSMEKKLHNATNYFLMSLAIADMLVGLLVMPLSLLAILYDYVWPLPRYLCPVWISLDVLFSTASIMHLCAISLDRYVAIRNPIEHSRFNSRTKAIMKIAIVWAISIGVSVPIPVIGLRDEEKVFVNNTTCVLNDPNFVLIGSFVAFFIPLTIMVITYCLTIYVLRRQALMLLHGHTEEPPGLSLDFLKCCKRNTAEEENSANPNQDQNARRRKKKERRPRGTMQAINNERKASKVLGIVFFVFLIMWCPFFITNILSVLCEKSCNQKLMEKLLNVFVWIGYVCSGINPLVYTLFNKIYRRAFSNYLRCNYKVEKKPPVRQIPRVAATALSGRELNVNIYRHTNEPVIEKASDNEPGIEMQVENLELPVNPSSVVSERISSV

[5] = target: T2, Muscarinic acetylcholine receptor M2 (Homo sapiens) (UniProt P08172); test: Inhibition of [3H]AF-DX384 from binding to M2 receptor (unknown origin) at 10 uM relative to control
T2 sequence (whole entry): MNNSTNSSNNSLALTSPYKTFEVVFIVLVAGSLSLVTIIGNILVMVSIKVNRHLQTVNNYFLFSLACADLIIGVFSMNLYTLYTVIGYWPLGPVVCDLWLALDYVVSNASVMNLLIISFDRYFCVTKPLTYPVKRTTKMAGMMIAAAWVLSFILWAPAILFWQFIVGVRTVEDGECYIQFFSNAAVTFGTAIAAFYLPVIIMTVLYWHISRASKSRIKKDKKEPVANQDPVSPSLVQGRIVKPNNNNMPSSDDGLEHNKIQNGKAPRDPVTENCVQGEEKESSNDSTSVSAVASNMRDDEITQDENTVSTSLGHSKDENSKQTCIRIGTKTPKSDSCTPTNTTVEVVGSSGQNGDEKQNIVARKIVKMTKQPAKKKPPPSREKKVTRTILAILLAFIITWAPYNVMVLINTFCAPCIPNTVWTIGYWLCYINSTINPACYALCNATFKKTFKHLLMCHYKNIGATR

[6] = target: T3, Muscarinic acetylcholine receptor M4 (Homo sapiens) (UniProt P08173); test: Inhibition of [3H]4-DAMP from binding to M4 receptor (unknown origin) at 10 uM relative to control
T3 sequence (whole entry): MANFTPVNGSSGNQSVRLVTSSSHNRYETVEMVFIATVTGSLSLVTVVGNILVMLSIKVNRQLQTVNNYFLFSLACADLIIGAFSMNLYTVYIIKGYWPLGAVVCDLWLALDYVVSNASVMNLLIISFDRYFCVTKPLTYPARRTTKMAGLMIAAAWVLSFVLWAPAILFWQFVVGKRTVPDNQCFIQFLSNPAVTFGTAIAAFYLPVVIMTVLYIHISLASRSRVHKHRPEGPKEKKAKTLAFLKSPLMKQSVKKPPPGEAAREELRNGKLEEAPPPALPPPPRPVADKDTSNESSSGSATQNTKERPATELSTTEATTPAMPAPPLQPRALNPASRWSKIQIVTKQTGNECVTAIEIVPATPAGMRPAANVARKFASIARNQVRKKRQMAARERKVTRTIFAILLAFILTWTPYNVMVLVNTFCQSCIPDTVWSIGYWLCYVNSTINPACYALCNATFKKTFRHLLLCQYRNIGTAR

[7] = target: 5-hydroxytryptamine receptor 7 (Homo sapiens) (UniProt P34969); test: Inhibition of [3H]LSD from binding to 5-HT7 receptor (unknown origin) at 1 uM relative to control
[8] = target: T4, 5-hydroxytryptamine receptor 1A (Homo sapiens) (UniProt P08908); test: Inhibition of [3H]-8-OH-DPAT from binding to 5-HT1A receptor (unknown origin) at 10 uM relative to control
T4 sequence (whole entry): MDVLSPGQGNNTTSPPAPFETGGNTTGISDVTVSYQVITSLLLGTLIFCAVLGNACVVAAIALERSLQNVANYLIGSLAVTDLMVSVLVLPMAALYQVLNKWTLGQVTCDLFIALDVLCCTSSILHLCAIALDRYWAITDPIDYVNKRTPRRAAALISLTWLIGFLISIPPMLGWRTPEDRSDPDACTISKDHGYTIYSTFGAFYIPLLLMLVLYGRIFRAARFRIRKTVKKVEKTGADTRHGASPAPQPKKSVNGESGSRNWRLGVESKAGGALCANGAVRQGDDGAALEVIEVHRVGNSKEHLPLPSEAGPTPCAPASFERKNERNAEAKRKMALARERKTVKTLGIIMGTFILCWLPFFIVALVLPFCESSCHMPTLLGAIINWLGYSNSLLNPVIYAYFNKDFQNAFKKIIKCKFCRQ

[9] = target: Muscarinic acetylcholine receptor M3 (Homo sapiens) (UniProt P20309); test: Inhibition of [3H]4-DAMP from binding to M3 receptor (unknown origin) at 10 uM relative to control
[10] = target: T5, Muscarinic acetylcholine receptor M5 (Homo sapiens) (UniProt P08912); test: Inhibition of [3H]4-DAMP from binding to M5 receptor (unknown origin) at 10 uM relative to control
T5 sequence (whole entry): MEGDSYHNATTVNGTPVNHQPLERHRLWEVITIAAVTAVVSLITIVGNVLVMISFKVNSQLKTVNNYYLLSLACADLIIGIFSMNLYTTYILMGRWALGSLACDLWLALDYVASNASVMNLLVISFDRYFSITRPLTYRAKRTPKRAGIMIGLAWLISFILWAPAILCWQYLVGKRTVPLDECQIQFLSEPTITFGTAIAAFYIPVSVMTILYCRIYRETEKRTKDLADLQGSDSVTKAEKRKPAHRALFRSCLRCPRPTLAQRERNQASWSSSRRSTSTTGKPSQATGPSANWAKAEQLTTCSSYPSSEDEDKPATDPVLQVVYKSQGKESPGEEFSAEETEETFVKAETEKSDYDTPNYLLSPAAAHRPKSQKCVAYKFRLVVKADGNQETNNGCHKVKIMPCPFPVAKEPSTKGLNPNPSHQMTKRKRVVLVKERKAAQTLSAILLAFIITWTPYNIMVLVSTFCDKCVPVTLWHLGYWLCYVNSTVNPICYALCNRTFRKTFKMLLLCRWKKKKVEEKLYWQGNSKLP

[11] = target: T6, Muscarinic acetylcholine receptor M1 (Homo sapiens) (UniProt P11229); test: Inhibition of [3H]pirenzepine from binding to M1 receptor (unknown origin) at 10 uM relative to control
T6 sequence (whole entry): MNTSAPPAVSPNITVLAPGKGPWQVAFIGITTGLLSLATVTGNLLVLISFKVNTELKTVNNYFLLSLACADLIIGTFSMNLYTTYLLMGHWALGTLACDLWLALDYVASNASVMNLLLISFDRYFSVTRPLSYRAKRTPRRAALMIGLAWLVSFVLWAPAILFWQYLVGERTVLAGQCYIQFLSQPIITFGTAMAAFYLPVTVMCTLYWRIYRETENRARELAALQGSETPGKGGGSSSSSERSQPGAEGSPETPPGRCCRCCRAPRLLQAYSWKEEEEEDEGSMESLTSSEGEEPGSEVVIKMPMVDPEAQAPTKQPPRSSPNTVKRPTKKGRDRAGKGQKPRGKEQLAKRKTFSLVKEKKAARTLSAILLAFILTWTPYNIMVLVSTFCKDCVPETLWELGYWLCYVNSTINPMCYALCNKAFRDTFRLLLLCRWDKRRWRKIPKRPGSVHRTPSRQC

[12] = target: T7, 5-hydroxytryptamine receptor 2A (Homo sapiens, UniProt P28223); test: Antagonist activity at 5-HT2A receptor in HEK293 cells assessed as calcium mobilisation by Fluo-4 dye based assay; type: functional, cell-based
[13] = Antagonist activity at 5-HT-induced 5-HT2B signaling in CHO cells by IP1 assay; conditions: Cricetulus griseus
[14] = target: 5-hydroxytryptamine receptor 5A (Homo sapiens) (UniProt P47898); test: Inhibition of [3H]LSD from binding to 5-HT5A receptor (unknown origin) at 10 uM relative to control
[15] = target: 5-hydroxytryptamine receptor 2B (Homo sapiens) (UniProt P41595); test: Inhibition of [3H]mesulergine from binding to 5-HT2B receptor (unknown origin) at 10 uM relative to control
Homo sapiens = species on record: Homo sapiens; test: Inhibition of [3H]BRL43694 from binding to 5-HT3 receptor (unknown origin) at 10 uM relative to control
[16] = target: T7, 5-hydroxytryptamine receptor 2A; test: Agonist activity at 5-HT2A receptor in HEK293 cells assessed as calcium mobilisation by Fluo-4 dye based assay
[17] = target: Neuronal acetylcholine receptor; alpha4/beta2 (Homo sapiens) (UniProt P17787+P43681); test: Inhibition of [3H]epibatidine from binding to human nACh receptor alpha4beta2 expressed in HEK293 cell membrane at 10 uM incubated for 2.5 hrs by liquid scintillation counting analysis relative to control; type: cell membranes
[18] = target: Neuronal acetylcholine receptor; alpha3/beta4 (Rattus norvegicus) (UniProt P04757+P12392); test: Inhibition of [3H]epibatidine from binding to rat nACh receptor alpha3beta4 expressed in HEK293 cell membrane at 10 uM incubated for 2.5 hrs by liquid scintillation counting analysis relative to control; type: cell membranes

T7 sequence (P28223 whole entry): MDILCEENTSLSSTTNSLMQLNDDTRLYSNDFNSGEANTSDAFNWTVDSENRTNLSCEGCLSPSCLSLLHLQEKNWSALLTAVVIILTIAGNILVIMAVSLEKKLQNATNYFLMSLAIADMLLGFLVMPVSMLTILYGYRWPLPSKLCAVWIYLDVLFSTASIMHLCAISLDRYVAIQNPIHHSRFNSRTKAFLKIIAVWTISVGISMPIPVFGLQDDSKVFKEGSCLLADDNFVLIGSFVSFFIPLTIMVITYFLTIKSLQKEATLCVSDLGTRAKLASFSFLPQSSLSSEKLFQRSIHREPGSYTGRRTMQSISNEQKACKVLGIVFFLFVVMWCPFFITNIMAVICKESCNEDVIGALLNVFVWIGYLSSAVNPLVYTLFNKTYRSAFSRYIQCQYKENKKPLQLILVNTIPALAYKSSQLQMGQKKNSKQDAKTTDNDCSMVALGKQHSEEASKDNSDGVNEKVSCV
Sequence of 5-hydroxytryptamine receptor 7 (Homo sapiens) (P34969 whole entry): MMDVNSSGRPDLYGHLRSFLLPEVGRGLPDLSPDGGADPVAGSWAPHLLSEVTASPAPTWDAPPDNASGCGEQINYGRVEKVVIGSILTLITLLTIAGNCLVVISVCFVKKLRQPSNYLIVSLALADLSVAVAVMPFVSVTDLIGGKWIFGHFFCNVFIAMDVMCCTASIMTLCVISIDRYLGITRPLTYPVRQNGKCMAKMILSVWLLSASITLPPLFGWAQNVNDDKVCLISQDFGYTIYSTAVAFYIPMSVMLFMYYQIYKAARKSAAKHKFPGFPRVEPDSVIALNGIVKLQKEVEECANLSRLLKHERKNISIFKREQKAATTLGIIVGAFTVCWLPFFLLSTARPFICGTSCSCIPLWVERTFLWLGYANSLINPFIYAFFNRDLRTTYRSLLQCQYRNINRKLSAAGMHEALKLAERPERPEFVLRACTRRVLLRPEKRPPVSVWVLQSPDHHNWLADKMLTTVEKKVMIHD
Sequence of 5-hydroxytryptamine receptor 5A (Homo sapiens) (P47898 whole entry): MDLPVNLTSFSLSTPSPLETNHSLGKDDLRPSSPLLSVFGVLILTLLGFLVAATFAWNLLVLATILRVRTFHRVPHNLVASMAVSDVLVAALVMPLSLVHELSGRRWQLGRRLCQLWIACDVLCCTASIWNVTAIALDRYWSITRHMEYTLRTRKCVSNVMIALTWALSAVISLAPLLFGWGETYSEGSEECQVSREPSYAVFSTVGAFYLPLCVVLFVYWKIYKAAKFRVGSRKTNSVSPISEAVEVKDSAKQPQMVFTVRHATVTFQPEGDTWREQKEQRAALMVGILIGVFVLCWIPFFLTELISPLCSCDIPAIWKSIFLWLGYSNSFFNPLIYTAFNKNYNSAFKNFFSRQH
Sequence of 5-hydroxytryptamine receptor 4 (Homo sapiens) (Q13639 whole entry): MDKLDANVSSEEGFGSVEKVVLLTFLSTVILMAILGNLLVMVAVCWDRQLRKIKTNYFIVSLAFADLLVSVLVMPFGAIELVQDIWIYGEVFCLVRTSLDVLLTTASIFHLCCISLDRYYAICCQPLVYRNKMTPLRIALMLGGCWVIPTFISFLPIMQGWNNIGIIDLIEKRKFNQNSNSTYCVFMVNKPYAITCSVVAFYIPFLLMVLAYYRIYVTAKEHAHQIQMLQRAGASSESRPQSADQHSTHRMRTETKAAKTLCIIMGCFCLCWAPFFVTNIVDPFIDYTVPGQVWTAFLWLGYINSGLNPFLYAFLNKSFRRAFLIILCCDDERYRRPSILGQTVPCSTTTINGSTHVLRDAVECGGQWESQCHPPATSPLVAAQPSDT
Sequence of 5-hydroxytryptamine receptor 2B (Homo sapiens) (P41595 whole entry): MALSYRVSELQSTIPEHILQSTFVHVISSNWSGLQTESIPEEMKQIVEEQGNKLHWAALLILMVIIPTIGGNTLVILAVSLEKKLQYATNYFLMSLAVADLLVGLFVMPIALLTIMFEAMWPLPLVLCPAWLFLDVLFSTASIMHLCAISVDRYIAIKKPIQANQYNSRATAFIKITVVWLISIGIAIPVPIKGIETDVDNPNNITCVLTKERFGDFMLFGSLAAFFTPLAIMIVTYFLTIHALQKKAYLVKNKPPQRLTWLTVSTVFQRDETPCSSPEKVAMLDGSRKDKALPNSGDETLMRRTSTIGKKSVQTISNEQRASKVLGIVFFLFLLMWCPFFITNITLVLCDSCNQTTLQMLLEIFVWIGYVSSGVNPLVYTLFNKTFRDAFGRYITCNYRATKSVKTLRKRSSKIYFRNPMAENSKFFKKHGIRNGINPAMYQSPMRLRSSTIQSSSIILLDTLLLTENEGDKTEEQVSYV
Sequence of 5-hydroxytryptamine receptor 6 (Homo sapiens) (P50406 whole entry): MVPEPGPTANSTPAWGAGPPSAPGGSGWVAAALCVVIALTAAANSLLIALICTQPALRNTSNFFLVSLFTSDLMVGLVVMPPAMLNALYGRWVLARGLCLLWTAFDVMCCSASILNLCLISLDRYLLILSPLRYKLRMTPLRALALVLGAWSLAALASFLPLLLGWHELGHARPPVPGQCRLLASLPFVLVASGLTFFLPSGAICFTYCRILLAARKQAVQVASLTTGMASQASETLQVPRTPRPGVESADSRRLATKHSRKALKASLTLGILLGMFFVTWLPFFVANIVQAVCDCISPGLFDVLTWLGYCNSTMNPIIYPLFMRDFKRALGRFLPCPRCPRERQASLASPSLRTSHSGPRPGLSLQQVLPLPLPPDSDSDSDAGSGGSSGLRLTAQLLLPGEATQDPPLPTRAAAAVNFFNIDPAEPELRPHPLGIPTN
Sequence of Muscarinic acetylcholine receptor M3 (Homo sapiens) (P20309 whole entry, looked up): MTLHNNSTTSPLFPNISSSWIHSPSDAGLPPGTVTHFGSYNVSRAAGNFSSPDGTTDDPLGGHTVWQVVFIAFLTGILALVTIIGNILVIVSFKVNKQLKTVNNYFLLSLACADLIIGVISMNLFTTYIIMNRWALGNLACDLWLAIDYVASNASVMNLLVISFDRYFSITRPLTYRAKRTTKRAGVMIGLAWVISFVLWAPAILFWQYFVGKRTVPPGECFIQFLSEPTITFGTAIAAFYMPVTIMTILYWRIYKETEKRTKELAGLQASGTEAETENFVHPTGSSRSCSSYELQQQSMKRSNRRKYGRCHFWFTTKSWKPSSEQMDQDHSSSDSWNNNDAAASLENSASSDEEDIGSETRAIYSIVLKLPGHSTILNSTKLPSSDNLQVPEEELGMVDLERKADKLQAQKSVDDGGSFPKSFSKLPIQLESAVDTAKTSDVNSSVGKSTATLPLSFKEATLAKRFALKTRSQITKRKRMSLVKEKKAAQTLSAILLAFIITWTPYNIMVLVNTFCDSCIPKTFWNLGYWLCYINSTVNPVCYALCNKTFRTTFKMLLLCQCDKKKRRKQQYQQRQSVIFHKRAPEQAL

| SMILES | pIC50 [4] | pIC50 [12] | also measured |
| --- | --- | --- | --- |
| O=C1C[C@]2(CN3CCC2CC3)Oc2c1ccc1ccccc21 | 7.02 | 4.30 | inhibition [1]: 57%; inhibition [2]: 92%; inhibition [3]: 42%; inhibition [5]: 31%; inhibition [6]: 67%; inhibition [7]: 67%; inhibition [8]: 57%; inhibition [9]: 27%; inhibition [10]: 69%; inhibition [11]: 67%; pIC50 [13]: 6.87; inhibition [14]: 64%; inhibition [15]: 99%; inhibition (Homo sapiens): 85% |
| O=C1C[C@]2(CN3CCC2CC3)Oc2ccc(F)cc21 | < 5.00 | < 5.00 |  |
| O=C1C[C@]2(CN3CCC2CC3)Oc2ccc(Br)cc21 | < 5.00 | < 5.00 |  |
| O=C1C[C@]2(CN3CCC2CC3)Oc2cc3ccccc3cc21 | < 4.00 | 4.30 |  |
| O=C1C[C@]2(CN3CCC2CC3)Oc2cc(Br)ccc21 | 5.64 | 4.82 |  |
| O=C1C[C@]2(CN3CCC2CC3)Oc2ccccc21 | < 5.00 | < 5.00 |  |
| COc1cccc2c1C(=O)C[C@]1(CN3CCC1CC3)O2 | 5.30 | < 4.00 |  |
| COc1ccc2c(c1)O[C@]1(CC2=O)CN2CCC1CC2 | 6.28 | < 4.52 | pEC50 [16]: < 4.52 |
| O=C1NC2(CN3CCC2CC3)Nc2ccccc21 (stereo not given) |  |  | inhibition [17]: > 50%; inhibition [18]: > 50% |
| COc1ccc2c(c1)C(=O)C[C@]1(CN3CCC1CC3)O2 | < 5.00 | < 5.00 |  |
| O=C1C[C@]2(CN3CCC2CC3)Oc2cc(OCC3CC3)ccc21 | 5.82 | < 4.00 |  |
| O=C1C[C@@]2(CN3CCC2CC3)Oc2c1ccc1ccccc21 | 4.30 | < 4.00 |  |
| Cc1ccc2c(c1)O[C@]1(CC2=O)CN2CCC1CC2 | 5.60 | < 4.00 |  |
| O=C1CC2(CN3CCC2CC3)Oc2c1ccc1ccccc21 (racemic) | 6.74 | 4.70 |  |
| O=C1C[C@]2(CN3CCC2CC3)Oc2cc(O)ccc21 | 5.60 | < 4.00 |  |
